Measurements as given in ChEMBL document CHEMBL1155613, “Urinary metabolites of gallic acid in rats and their radical-scavenging effects on 1,1-diphenyl-2-picrylhydrazyl radical” (J Nat Prod, 2000).

Tested on: Radical scavenging activity
Experiment: Antioxidant activity assessed as DPPH free radical scavenging activity
Assay type: functional

## COc1c(O)cc(C(=O)O)cc1OS(=O)(=O)O
  EC50: > 100 µM

## COc1c(O)cc(C(=O)O)cc1O
  EC50: > 100 µM

## COc1c(O)cccc1O[C@@H]1O[C@H](C(=O)O)[C@@H](O)[C@H](O)[C@H]1O
  EC50: > 100 µM

## Cc1c(C)c2c(c(C)c1O)CCC(C)(CCCC(C)CCCC(C)CCCC(C)C)O2 (racemic) [alpha-TOCHOPHEROL]
  EC50: 19.9 µM

## COc1c(O)cccc1O [2-METHOXYRESORCINOL]
  EC50: 99.6 µM

## O=C1O[C@H]([C@@H](O)CO)C(O)=C1O [ASCORBIC ACID]
  EC50: 16.6 µM

## O=C(O)c1cc(O)c(O)c(O)c1 [GALLIC ACID]
  EC50: 4.2 µM

## Oc1cccc(O)c1O [PYROGALLOL]
  EC50: 4.2 µM
